Experimental findings from patent publication US20040180104A1, “Herbal composition for preventing and/or treating conditions in associated with depression” (priority 2003, published 2004) are described below.

The test concerns duration of immobility (despair) in rodents. Put plainly: Forced Swimming Test (FST). It is filed as in vivo. The following applies: male BALB mice, imipramine.

Protocol: Rodents are placed individually into an transparent acrylic cuboid containing 15 cm (for the mice) or 30 cm (for the rats) of water at 24+1° C. for 6 minutes. The durations of struggling, active movement and immobility in the test is recorded by an automatic device. A 15 minutes pre-test was performed 20-24 hours prior to the test. The duration of immobility is used as a parameter of despair in the rodents.
160-250 g of male Wistar rats were purchased from NSC (National Science Council, Taipei Taiwan). The animals were placed at constant ambient temperature (25±1° C.) with food and water available and on a 12:12-h LD cycle (lights on at 06:00, off at 18:00.)
The FST test as mentioned herein was performed.

Consider `CN(C)CCCN1c2ccccc2CCc2ccccc21` [Imipramine], for which the “duration of immobility (in words)” value is on record as “reduction in the duration of immobility”.
